Source: patent US11773078B2, “Furin inhibitors” (Glaxosmithkline Intellectual Property Development Limited, priority 2018, dated 2023)

How the values were obtained:
[1] = target: T1, furin (endogenous protease) in U20S cells (Homo sapiens, UniProt P09958); test: Furin cell-based assay (image-based, Golgi-targeted GFP with BMP10 furin/PCSK cleavage site); details: 24-hour incubation, read-out: furin golgi cell pXC50 (converted);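 note: Read-out is mean GFP fluorescence of Golgi puncta per cell by high-content imaging, retained when furin inhibited, over an eleven-point 0.00017–10 µM series, four-parameter fit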
T1 construct: the endogenous protease cleaves GFP; endogenous in cells; host or cells: U2OS cells transduced with a BacMam reporter
T1 sequence (P09958 108-794): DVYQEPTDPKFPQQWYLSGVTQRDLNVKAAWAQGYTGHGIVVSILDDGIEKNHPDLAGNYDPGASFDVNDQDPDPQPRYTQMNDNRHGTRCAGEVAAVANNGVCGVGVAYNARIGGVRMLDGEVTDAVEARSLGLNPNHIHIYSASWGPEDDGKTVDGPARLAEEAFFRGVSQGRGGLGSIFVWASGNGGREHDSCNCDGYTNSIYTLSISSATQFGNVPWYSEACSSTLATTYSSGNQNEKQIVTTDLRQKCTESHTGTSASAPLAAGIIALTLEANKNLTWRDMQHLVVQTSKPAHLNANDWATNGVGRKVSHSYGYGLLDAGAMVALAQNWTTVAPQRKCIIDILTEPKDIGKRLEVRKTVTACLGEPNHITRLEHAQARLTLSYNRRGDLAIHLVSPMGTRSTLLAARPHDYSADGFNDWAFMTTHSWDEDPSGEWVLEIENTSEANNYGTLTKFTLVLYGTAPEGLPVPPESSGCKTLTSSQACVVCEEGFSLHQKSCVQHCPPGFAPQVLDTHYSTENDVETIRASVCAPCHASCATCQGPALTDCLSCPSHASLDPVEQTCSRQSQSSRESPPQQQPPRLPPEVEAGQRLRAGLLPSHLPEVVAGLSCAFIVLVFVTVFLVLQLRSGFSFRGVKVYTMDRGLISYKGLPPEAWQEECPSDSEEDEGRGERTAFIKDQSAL
Description: This assay uses an image-based platform to evaluate the intracellular activity of compounds of the invention. Reactions were performed in black 384-well, tissue culture-treated, clear bottom plates (Greiner). Compounds under analysis were dissolved in DMSO (1.0 mM) and serially diluted 1 to 3 with DMSO through eleven dilutions. This creates a final compound concentration range from 0.00017 to 10 μM, and 0.1 μL of each concentration was transferred to the corresponding well of the assay plate. Assays were initiated by the addition of U20S cells simultaneously transduced with a BacMam-delivered construct containing a Golgi-targeting sequence followed by a 12-amino acid furin/PCSK cleavage site from Bone Morphogenic Protein 10 (BMP10) and then GFP at the C terminus. […] Briefly, frozen cells are thawed in assay media (Dulbecco's Modified Eagles Medium Nutritional Mixture F-12 (Ham) without phenol red containing 5% FBS) and diluted to deliver 6000 cells/well (50 μL) to the plate using a Multidrop Combi (Thermo).
After a 24-hour incubation period at 37° C., the cells are stained with Cell Mask Deep Red, fixed in paraformaldehyde and the nuclei stained using Ho33342. The Golgi-targeted GFP forms bright punctate clusters within the cell. In the absence of a furin inhibitor, the endogenous protease cleaves GFP from its N-acetylgalactosaminyltransferase-2 Golgi tether, releasing GFP into the Golgi lumen where fluorescence is diluted below the threshold of assay sensitivity. […] Cellular GFP intensity is determined by image-based acquisition (Incell 2200, Perkin Elmer) at 40× magnification with 4 fields measured per well. Multi-scale tophat segmentation is used to identify the GFP-tagged puncta and to quantitate the average fluorescence of all puncta on a per cell basis. Cellular toxicity is determined in parallel.
Data were analyzed using AbaseXE 7.3, utilizing a four-parameter curve fit equation. The following values were used to define limits and/or constraints for each of the four parameters: • Minimum—limit −10 to 10 • Maximum—90 to 110 • Slope—limit 0.5 to 2.0 • pXC50 confidence interval—10
Raw counts obtained from the respective plate reader (Perkin Elmer) were captured for data analysis. Curves were generated using the equation: Y=A+[(B−A)/(1+(10^C/x)^D)] • where: A=minimum response • B=maximum response • C=log 10*XC50 • D=slope factor • x=log 10 compound concentration [M]
The results were recorded as pXC50 values (−C in the above equation)

[2] = target: T2, Furin (108-574-Tev-Flag-His) enzyme (Homo sapiens, UniProt P09958); test: Furin enzyme assay; type: biochemical; details: for IC50: read-out: furin enzyme pIC50 (converted)
T2 construct: Furin (108-574-Tev-Flag-His) enzyme was expressed and purified from CHO cells; TEV cleavage site (C); FLAG (C); His (C); made in house; host or cells: CHO cells
T2 sequence (P09958 108-574): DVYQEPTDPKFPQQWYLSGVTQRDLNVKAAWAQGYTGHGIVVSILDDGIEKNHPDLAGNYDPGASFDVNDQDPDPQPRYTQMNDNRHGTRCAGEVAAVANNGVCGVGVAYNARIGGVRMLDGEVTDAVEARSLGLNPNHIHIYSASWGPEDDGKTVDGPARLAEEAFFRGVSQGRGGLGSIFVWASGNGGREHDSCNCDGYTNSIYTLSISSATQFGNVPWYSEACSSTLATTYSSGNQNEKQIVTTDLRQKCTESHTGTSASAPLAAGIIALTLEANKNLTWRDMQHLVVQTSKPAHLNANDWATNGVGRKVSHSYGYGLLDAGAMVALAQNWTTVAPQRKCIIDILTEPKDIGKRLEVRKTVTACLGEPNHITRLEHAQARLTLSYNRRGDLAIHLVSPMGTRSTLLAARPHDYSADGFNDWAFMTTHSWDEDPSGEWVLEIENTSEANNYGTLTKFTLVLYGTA
Outline: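 CHO-expressed, purified furin construct at 40 pM in 100 mM HEPES pH7.5, 1 mM CaCl2, 0.005% Triton X-100. Eleven-point 1:3 series, 0.00017–10 μM final, incubated 2 h at room temperature and read on Envision. pXC50 from four-parameter fit.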

Compound | EC50 [1] [nM] | furin enzyme pIC50 [2] | IC50 [2] [nM]
CC(CC1CCN(Cc2cc(Oc3cnc(N4CCNCC4)nc3)nc(-c3cc(Cl)cc(Cl)c3)c2)CC1)C(=O)O (stereo not shown) [Example 269, 3-(1-((2-(3,5-dichlorophenyl)-6-((2-(piperazin-1-yl)pyrimidin-5-yl)oxy)pyridin-4-yl)methyl)piperidin-4-yl)-2-methylpropanoic acid] | 25.1 | 8.5 | –
CNC(=O)NCC1CCN(Cc2cc(Oc3cnc(N4CCN(CCC(=O)O)CC4)c(F)c3)nc(-c3cc(Cl)cc(Cl)c3)c2)CC1 [Example 270, 3-(4-(5-((6-(3,5-dichlorophenyl)-4-((4-((3-methylureido)methyl)piperidin-1-yl)methyl)pyridin-2-yl)oxy)-3-fluoropyridin-2-yl)piperazin-1-yl)propanoic acid] | 25.1 | 9.5 | –
CS(=O)(=O)CCCN1CCN(c2ccc(Oc3cc(CN4CCC(CCC(=O)O)CC4)cc(-c4cc(Cl)cc(Cl)c4)n3)cn2)CC1 [Example 271, 3-(1-((2-(3,5-dichlorophenyl)-6-((6-(4-(3-(methylsulfonyl)propyl)piperazin-1-yl)pyridin-3-yl)oxy)pyridin-4-yl)methyl)piperidin-4-yl)propanoic acid] | 25.1 | 8.9 | –
CS(=O)(=O)CCCN1CCN(c2ncc(Oc3cc(CN4CCC(CCC(=O)O)CC4)cc(-c4cc(Cl)cc(Cl)c4)n3)cn2)CC1 [Example 272, 3-(1-((2-(3,5-dichlorophenyl)-6-((2-(4-(3-(methylsulfonyl)propyl)piperazin-1-yl)pyrimidin-5-yl)oxy)pyridin-4-yl)methyl)piperidin-4-yl)propanoic acid] | 31.6 | 9.8 | –
CC(=O)NCC1CCN(Cc2cc(Oc3cnc(N4CCN(CCC(N)=O)CC4)nc3)nc(-c3cc(F)c(F)c(Cl)c3)c2)CC1 [Example 273, 3-(4-(5-((4-((4-(acetamidomethyl)piperidin-1-yl)methyl)-6-(3-chloro-4,5-difluorophenyl)pyridin-2-yl)oxy)pyrimidin-2-yl)piperazin-1-yl)propanamide] | 31.6 | 8.2 | –
CNC(=O)NCC1CCN(Cc2cc(Oc3cnc(N4CCN(CCCS(C)(=O)=O)CC4)nc3)nc(-c3cc(F)cc(Cl)c3)c2)CC1 [Example 274, 1-((1-((2-(3-chloro-5-fluorophenyl)-6-((2-(4-(3-(methylsulfonyl)propyl)piperazin-1-yl)pyrimidin-5-yl)oxy)pyridin-4-yl)methyl)piperidin-4-yl)methyl)-3-methylurea] | 6.31 | 9 | –
COC(=O)NCC1CCN(Cc2cc(Oc3cnc(N4CCNCC4)nc3)nc(-c3cc(F)cc(Cl)c3)c2)CC1 [Example 275, methyl ((1-((2-(3-chloro-5-fluorophenyl)-6-((2-(piperazin-1-yl)pyrimidin-5-yl)oxy)pyridin-4-yl)methyl)piperidin-4-yl)methyl)carbamate] | 100 | 8.3 | –
CS(=O)(=O)CCC1CCN(Cc2cc(Oc3ccc(N4CCN(CCC(=O)O)CC4)nc3)nc(-c3cc(Cl)cc(Cl)c3)c2)CC1 [Example 276, 3-(4-(5-((6-(3,5-dichlorophenyl)-4-((4-(2-(methylsulfonyl)ethyl)piperidin-1-yl)methyl)pyridin-2-yl)oxy)pyridin-2-yl)piperazin-1-yl)propanoic acid] | 50.1 | 9 | –
NS(=O)(=O)CCC1CCN(Cc2cc(Oc3ccc(N4CCN(CCC(=O)O)CC4)nc3)nc(-c3cc(Cl)cc(Cl)c3)c2)CC1 [Example 277, 3-(4-(5-((6-(3,5-dichlorophenyl)-4-((4-(2-sulfamoylethyl)piperidin-1-yl)methyl)pyridin-2-yl)oxy)pyridin-2-yl)piperazin-1-yl)propanoic acid] | 50.1 | – | 0.0316
O=C(O)CC1CCN(Cc2cc(Oc3cnc(N4CCN(CCC5(O)CC5)CC4)nc3)nc(-c3cc(Cl)cc(Cl)c3)c2)CC1 [Example 278, 2-(1-((2-(3,5-dichlorophenyl)-6-((2-(4-(2-(1-hydroxycyclopropyl)ethyl)piperazin-1-yl)pyrimidin-5-yl)oxy)pyridin-4-yl)methyl)piperidin-4-yl)acetic acid] | 10 | 9.4 | –
CC(C)(O)CCN1CCN(c2ncc(Oc3cc(CN4CCC(CC(=O)O)CC4)cc(-c4cc(Cl)cc(Cl)c4)n3)cn2)CC1 [Example 279, 2-(1-((2-(3,5-dichlorophenyl)-6-((2-(4-(3-hydroxy-3-methylbutyl)piperazin-1-yl)pyrimidin-5-yl)oxy)pyridin-4-yl)methyl)piperidin-4-yl)acetic acid] | 20 | 8.6 | –
CC(C)(CO)CN1CCN(c2ncc(Oc3cc(CN4CCC(CC(=O)O)CC4)cc(-c4cc(Cl)cc(Cl)c4)n3)cn2)CC1 [Example 280, 2-(1-((2-(3,5-dichlorophenyl)-6-((2-(4-(3-hydroxy-2,2-dimethylpropyl)piperazin-1-yl)pyrimidin-5-yl)oxy)pyridin-4-yl)methyl)piperidin-4-yl)acetic acid] | 15.8 | 8.3 | –
CC(=O)NCC1CCN(Cc2cc(Oc3ccc(N4CCN(C(C)CC(=O)O)CC4)nc3)nc(-c3cc(Cl)cc(Cl)c3)c2)CC1 (stereo not shown) [Example 281, 3-(4-(5-((4-((4-(Acetamidomethyl)piperidin-1-yl)methyl)-6-(3,5-dichlorophenyl)pyridin-2-yl)oxy)pyridin-2-yl)piperazin-1-yl)butanoic acid] | 39.8 | 9.5 | –
CC(=O)NCC1CCN(Cc2cc(Oc3cnc(N4CCN(C(C)CC(=O)O)CC4)nc3)nc(-c3cc(Cl)cc(Cl)c3)c2)CC1 (stereo not shown) [Example 282, 3-(4-(5-((4-((4-(acetamidomethyl)piperidin-1-yl)methyl)-6-(3,5-dichlorophenyl)pyridin-2-yl)oxy)pyrimidin-2-yl)piperazin-1-yl)butanoic acid] | 7.94 | – | 0.2
CC(=O)NCC1CCN(Cc2cc(Oc3cnc(N4CCN(CC(C)C(=O)O)CC4)nc3)nc(-c3cc(Cl)cc(Cl)c3)c2)CC1 (stereo not shown) [Example 283, 3-(4-(5-((4-((4-(acetamidomethyl)piperidin-1-yl)methyl)-6-(3,5-dichlorophenyl)pyridin-2-yl)oxy)pyrimidin-2-yl)piperazin-1-yl)-2-methylpropanoic acid] | 25.1 | 9.1 | –
CC(=O)NCC1CCN(Cc2cc(Oc3cnc(N4CCN(CC(C)C(N)=O)CC4)nc3)nc(-c3cc(Cl)cc(Cl)c3)c2)CC1 (stereo not shown) [Example 284, 3-(4-(5-((4-((4-(acetamidomethyl)piperidin-1-yl)methyl)-6-(3,5-dichlorophenyl)pyridin-2-yl)oxy)pyrimidin-2-yl)piperazin-1-yl)-2-methylpropanamide] | 1.26 | 10.1 | –
CC(=O)NCC1CCN(Cc2cc(Oc3cnc(N4CCN(CCS(C)(=O)=O)CC4)nc3)nc(-c3cc(Cl)cc(Cl)c3)c2)CC1 [Example 285, N-((1-((2-(3,5-dichlorophenyl)-6-((2-(4-(2-(methylsulfonyl)ethyl)piperazin-1-yl)pyrimidin-5-yl)oxy)pyridin-4-yl)methyl)piperidin-4-yl)methyl)acetamide] | 63.1 | 8.1 | –
CC(=O)NCC1CCN(Cc2cc(Oc3cnc(N4CCN(CCS(N)(=O)=O)CC4)nc3)nc(-c3cc(Cl)cc(Cl)c3)c2)CC1 [Example 286, N-((1-((2-(3,5-dichlorophenyl)-6-((2-(4-(2-sulfamoylethyl)piperazin-1-yl)pyrimidin-5-yl)oxy)pyridin-4-yl)methyl)piperidin-4-yl)methyl)acetamide] | 7.94 | 9.4 | –
CC(=O)NCC1CCN(Cc2cc(Oc3ccc(N4CCN(CCS(=O)(=O)O)CC4)nc3)nc(-c3cc(Cl)cc(Cl)c3)c2)CC1 [Example 287, 2-(4-(5-((4-((4-(acetamidomethyl)piperidin-1-yl)methyl)-6-(3,5-dichlorophenyl)pyridin-2-yl)oxy)pyridin-2-yl)piperazin-1-yl)ethanesulfonic acid] | 631 | – | 2
CCC(CN1CCN(c2ccc(Oc3cc(CN4CCC(CNC(C)=O)CC4)cc(-c4cc(Cl)cc(Cl)c4)n3)cn2)CC1)C(=O)O (stereo not shown) [Example 288, 2-((4-(5-((4-((4-(acetamidomethyl)piperidin-1-yl)methyl)-6-(3,5-dichlorophenyl)pyridin-2-yl)oxy)pyridin-2-yl)piperazin-1-yl)methyl)butanoic acid] | 50.1 | 9.4 | –
CC(=O)NCC1CCN(Cc2cc(Oc3ccc(N4CCN(CCS(N)(=O)=O)CC4)nc3)nc(-c3cc(Cl)cc(Cl)c3)c2)CC1 [Example 289, N-((1-((2-(3,5-dichlorophenyl)-6-((6-(4-(2-sulfamoylethyl)piperazin-1-yl)pyridin-3-yl)oxy)pyridin-4-yl)methyl)piperidin-4-yl)methyl)acetamide] | 5.01 | 8.6 | –
CNC(=O)NCC1CCN(Cc2cc(Oc3ccc(N4CCN(CCS(C)(=O)=O)CC4)nc3)nc(-c3cc(Cl)cc(Cl)c3)c2)CC1 [Example 290, 1-((1-((2-(3,5-dichlorophenyl)-6-((6-(4-(2-(methylsulfonyl)ethyl)piperazin-1-yl)pyridin-3-yl)oxy)pyridin-4-yl)methyl)piperidin-4-yl)methyl)-3-methylurea] | 15.8 | 8.2 | –
CNC(=O)NCC1CCN(Cc2cc(Oc3cnc(N4CCN(CC(C)C(N)=O)CC4)nc3)nc(-c3cc(Cl)cc(Cl)c3)c2)CC1 (stereo not shown) [Example 291, 3-(4-(5-((6-(3,5-dichlorophenyl)-4-((4-((3-methylureido)methyl)piperidin-1-yl)methyl)pyridin-2-yl)oxy)pyrimidin-2-yl)piperazin-1-yl)-2-methylpropanamide] | 7.94 | 10.7 | –
